In patent US8476197B2, “Aminopropenoates as fungicides” (priority 2009, dated 2013):
Marks after values point to notes of the source that are not given here.

Conditions: pH 2.3

| Log P | SMILES |
| --- | --- |
| 3.32^[c]; 3.32^[b] | CCOC(=O)C(C#N)=C(Nc1ccccc1SC)c1cccnc1OC [Compound 522] |
| 3.52 | CCOC(=O)C(C#N)=C(Nc1ccccc1OC(F)(F)F)c1cccnc1Cl [Compound 529] |
| 1.14 | COC(=O)C(C#N)=C(NCC(N)=O)c1cccnc1Cl [Compound 569] |
| 0.97 | COC(=O)C(C#N)=C(NC(CO)C(N)=O)c1cccnc1Cl (stereo not shown) [Compound 570] |
| 2.2 | CCOC(=O)C(C#N)=C(NC(C)CSC)c1cccnc1C (stereo not shown) [Compound 648] |

Same assay, conditions: pH 2.7

| SMILES | Log P |
| --- | --- |
| CCOC(=O)C(C#N)=C(Nc1ccccc1OC(C)C)c1ccsc1Br [Compound 523] | 4.46^[a] |
| CCOC(=O)C(C#N)=C(Nc1ccc(SC)cc1)c1ccsc1Br [Compound 524] | 4.01^[a] |
| CCOC(=O)C(C#N)=C(Nc1ccc(OC)cc1)c1ccsc1Br [Compound 525] | 3.6^[a] |
| CCOC(=O)C(C#N)=C(Nc1ccccc1SC)c1sc(Cl)nc1Cl [Compound 527] | 4.14^[a] |
| CCOC(=O)C(C#N)=C(NC1(c2c(F)cccc2F)CC1)c1sc(Cl)nc1Cl [Compound 528] | 4.14^[a] |
| CCOC(=O)C(C#N)=C(NC1(c2c(F)cccc2F)CC1)c1cn(C)nc1C(F)(F)F [Compound 530] | 3.48^[a] |
| CCOC(=O)C(C#N)=C(Nc1ccc(OC(F)F)cc1)c1ccsc1Br [Compound 532] | 3.73^[a] |
| CCOC(=O)C(C#N)=C(Nc1ccc2ncsc2c1)c1ccsc1Br [Compound 533] | 3.11^[a] |
| CCOC(=O)C(C#N)=C(Nc1ccc(Cl)cc1)c1ccsc1Br [Compound 534] | 4.11^[a] |
| CCOC(=O)C(C#N)=C(NCc1ccccc1SC)c1ccsc1Br [Compound 535] | 4.01^[a] |
| CCOC(=O)C(C#N)=C(Nc1ccc(C(C)C)cc1)c1ccsc1Br [Compound 536] | 4.78^[a] |
| CCOC(=O)C(C#N)=C(Nc1cccc(SC)c1)c1ccsc1Br [Compound 537] | 4.04^[a] |
| CCOC(=O)C(C#N)=C(Nc1cccc(Cl)c1)c1ccsc1Br [Compound 539] | 4.09^[a] |
| CCOC(=O)C(C#N)=C(Nc1ccc(N(C)C)cc1)c1ccsc1Br [Compound 540] | 3.76^[a] |
| CCOC(=O)C(C#N)=C(NC1(c2c(F)cccc2F)CC1)c1cccnc1Cl [Compound 543] | 3.39^[a] |
| CCOC(=O)C(C#N)=C(NC1(c2c(F)cccc2F)CC1)c1cn(C)cc1C(F)(F)F [Compound 547] | 3.85^[a] |
| CCOC(=O)C(C#N)=C(NC(C)(C)c1ccccc1)c1cn(C)nc1C(F)F [Compound 551] | 3.33^[a] |
| CCOC(=O)C(C#N)=C(NCc1ccc(Cl)cc1)c1cn(C)nc1C(F)F [Compound 555] | 3.31^[a] |
| CCOC(=O)C(C#N)=C(NC1(c2c(F)cccc2F)CC1)c1cn(C)nc1C(F)F [Compound 559] | 3.17^[a] |
| CCOC(=O)C(C#N)=C(NC1(COc2ccccc2)CC1)c1cccnc1Cl [Compound 560] | 3.6^[a] |
| CCOC(=O)C(C#N)=C(NC1(COc2ccccc2)CC1)c1cn(C)nc1C(F)F [Compound 561] | 3.37^[a] |
| CCOC(=O)C(C#N)=C(NC(C)CN(C)C)c1conc1C (stereo not shown) [Compound 594] | 0.76^[a] |
| CCOC(=O)C(C#N)=C(NC(C)C(N)=O)c1conc1C (stereo not shown) [Compound 596] | 1.41^[a] |

| SMILES | Log P |
| --- | --- |
| CCOC(=O)C(C#N)=C(NC(C)C(=O)NC)c1cn(C)nc1C(F)F (stereo not shown) [Compound 599] | 1.66^[a] |
| CCOC(=O)C(C#N)=C(NC(C)CN(C)C)c1c(C)nn(C)c1Cl (stereo not shown) [Compound 605] | 1.13^[a] |
| CCOC(=O)C(C#N)=C(NC(C)C(=O)NC)c1c(C)nn(C)c1Cl (stereo not shown) [Compound 606] | 1.7^[a] |
| CCOC(=O)C(C#N)=C(NC(C)C(N)=O)c1c(C)nn(C)c1Cl (stereo not shown) [Compound 607] | 1.58^[a] |
| CCOC(=O)C(C#N)=C(NC(C)C(N)=O)c1sccc1Br (stereo not shown) [Compound 611] | 1.9^[a] |
| CCOC(=O)C(C#N)=C(NC(C)CN(C)C)c1ccsc1Br (stereo not shown) [Compound 613] | 1.44^[a] |
| CCOCC(C)NC(=C(C#N)C(=O)OCC)c1cc(C)oc1C (stereo not shown) [Compound 617] | 3.42^[a] |
| CCOC(=O)C(C#N)=C(NC1(C(=O)OC(C)CC)CC1)c1cc(C)oc1C (stereo not shown) [Compound 618] | 3.94^[a] |
| CCOC(=O)C(C#N)=C(NC(C)(C)CSC)c1cc(C)oc1C [Compound 619] | 3.58^[a] |
| COC(=O)CC(C)NC(=C(C#N)C(=O)OC)c1cccnc1Cl (stereo not shown) [Compound 620] | 2.11^[a] |
| CCC(C)OC(=O)C1(NC(=C(C#N)C(=O)OC)c2cccnc2Cl)CC1 (stereo not shown) [Compound 621] | 2.23^[a] |
| CCN(CC)CC(C)NC(=C(C#N)C(=O)OC)c1cccnc1Cl (stereo not shown) [Compound 622] | 0.86^[a] |
| CCOC(=O)C1(NC(=C(C#N)C(=O)OC)c2cccnc2Cl)CC1 [Compound 623] | 1.66^[a] |
| CCOCC(C)NC(=C(C#N)C(=O)OC)c1cccnc1Cl (stereo not shown) [Compound 624] | 2.42^[a] |
| CCOCC(CC)NC(=C(C#N)C(=O)OC)c1cccnc1Cl (stereo not shown) [Compound 625] | 2.76^[a] |
| CCCC(COCC)NC(=C(C#N)C(=O)OC)c1cccnc1Cl (stereo not shown) [Compound 626] | 3.15^[a] |
| CCOCC(NC(=C(C#N)C(=O)OC)c1cccnc1Cl)C(C)C (stereo not shown) [Compound 627] | 3.11^[a] |
| CCOC(=O)C(C#N)=C(NC(C)C(N)=O)c1ccsc1Br (stereo not shown) [Compound 628] | 1.9^[a] |
| CCOC(=O)C(C#N)=C(NC(C)C(=O)NC)c1ccsc1Br (stereo not shown) [Compound 637] | 2.05^[a] |
| CCOC(=O)C(C#N)=C(NC(C)C(N)=O)c1sccc1Cl (stereo not shown) [Compound 644] | 1.9^[a] |
| CCOC(=O)C(C#N)=C(NC(C)C(=O)NC)c1ccsc1I (stereo not shown) [Compound 646] | 2.07^[a] |
| CCOC(=O)C(C#N)=C(NC(C)C(N)=O)c1ccsc1I (stereo not shown) [Compound 647] | 1.91^[a] |
| CCOC(=O)C(C#N)=C(NC(C)C(N)=O)c1sccc1Br (stereo not shown) [Compound 652] | 1.94^[a] |

Results, then the compound that gave them:

| Log P | SMILES |
| --- | --- |
| 3.73^[a] | CCOC(=O)C(C#N)=C(Nc1ccccc1SC)c1cn(C)cc1C(F)(F)F [Compound 548] |
| 1.3^[a] | COC(=O)C(C#N)=C(NC(C)C(N)=O)c1cn(C)nc1C(F)F (stereo not shown) [Compound 598] |
| 1.38^[a] | CNC(=O)C(C)NC(=C(C#N)C(=O)OC)c1cn(C)nc1C(F)F (stereo not shown) [Compound 601] |
| 1.36^[a] | CCOC(=O)C(C#N)=C(NC(C)CN(C)C)c1cn(C)nc1C(F)(F)F (stereo not shown) [Compound 602] |
| 0.96^[a] | CCOC(=O)C(C#N)=C(NCC(C)N)c1c(C)nn(C)c1Cl (stereo not shown) [Compound 603] |
| 1.63^[a] | CCOC(=O)C(C#N)=C(NC(C)CN(C)C)c1sccc1C(F)(F)F (stereo not shown) [Compound 608] |
| 1.42^[a] | CCOC(=O)C(C#N)=C(NCC(C)N)c1sccc1C(F)(F)F (stereo not shown) [Compound 609] |
| 2.07^[a] | CCOC(=O)C(C#N)=C(NC(C)C(N)=O)c1sccc1C(F)(F)F (stereo not shown) [Compound 610] |
| 2.07^[a] | CCOC(=O)C(C#N)=C(NC(C)C(=O)NC)c1sccc1Br (stereo not shown) [Compound 612] |
| 1.57^[a] | CCOC(=O)C(C#N)=C(NC(C)C(=O)NC)c1conc1C (stereo not shown) [Compound 629] |
| 1.17^[a] | COC(=O)C(C#N)=C(NC(C)CN(C)C)c1sc(C)nc1C(F)(F)F (stereo not shown) [Compound 630] |
| 0.94^[a] | COC(=O)/C(C#N)=C(\NCC(C)N)c1sc(C)nc1C(F)(F)F (stereo not shown) [Compound 631] |
| 1.11^[a] | CCOC(=O)C(C#N)=C(NC(C)CN)c1cn(C)nc1C(F)(F)F (stereo not shown) [Compound 632] |
| 1.69^[a] | COC(=O)C(C#N)=C(NC(C)C(N)=O)c1sc(C)nc1C(F)(F)F (stereo not shown) [Compound 634] |
| 1.78^[a] | CCOC(=O)C(C#N)=C(NC(C)C(N)=O)c1cn(C)nc1C(F)(F)F (stereo not shown) [Compound 635] |
| 1.95^[a] | CCOC(=O)C(C#N)=C(NC(C)C(=O)NC)c1cn(C)nc1C(F)(F)F (stereo not shown) [Compound 636] |
| 1.93^[a] | CNC(=O)C(C)NC(=C(C#N)C(=O)OC)c1sc(C)nc1C(F)(F)F (stereo not shown) [Compound 638] |
| 2.25^[a] | CCOC(=O)C(C#N)=C(NC(C)C(=O)NC)c1sccc1C(F)(F)F (stereo not shown) [Compound 639] |
| 1.35^[a] | CCOC(=O)C(C#N)=C(NC(C)CN(C)C)c1sc(C)nc1C(F)(F)F (stereo not shown) [Compound 640] |
| 1.96^[a] | CCOC(=O)C(C#N)=C(NC(C)C(N)=O)c1sc(C)nc1C(F)(F)F (stereo not shown) [Compound 641] |
| 2.07^[a] | CCOC(=O)C(C#N)=C(NC(C)C(=O)NC)c1sc(C)nc1C(F)(F)F (stereo not shown) [Compound 642] |
| 1.11^[a] | CCOC(=O)/C(C#N)=C(\NCC(C)N)c1sc(C)nc1C(F)(F)F (stereo not shown) [Compound 643] |
| 2.08^[a] | CCOC(=O)C(C#N)=C(NC(C)C(=O)NC)c1sccc1Cl (stereo not shown) [Compound 645] |
| 2.96^[a] | CCOC(=O)C(C#N)=C(NC(C)C(=O)OC)c1sccc1Br (stereo not shown) [Compound 649] |
| 3.67^[a] | CCOC(=O)C(C#N)=C(NC(C(=O)OC)C(C)C)c1sccc1Br (stereo not shown) [Compound 650] |

Same assay, conditions: pH 7.5

| SMILES | Log P |
| --- | --- |
| CCOC(=O)C(C#N)=C(Nc1ccccc1SC)c1cccnc1OC [Compound 522] | 3.32^[c]; 3.32^[b] |
| CCOC(=O)C(C#N)=C(Nc1ccccc1OC(F)(F)F)c1cccnc1Cl [Compound 529] | 3.46 |
| COC(=O)C(C#N)=C(NC(C)C(N)=O)c1cccnc1Cl (stereo not shown) [Compound 563] | 1.18 |
| COC(=O)C(C#N)=C(NCC(N)=O)c1cccnc1Cl [Compound 569] | 0.94 |
| COC(=O)C(C#N)=C(NC(CO)C(N)=O)c1cccnc1Cl (stereo not shown) [Compound 570] | 0.79 |
| COC(=O)C(C#N)=C(NC(C(N)=O)C(C)C)c1cccnc1Cl (stereo not shown) [Compound 572] | 1.58 |
| COC(=O)C(C#N)=C(NC(C(=O)OC)C(C)C)c1cccnc1Cl (stereo not shown) [Compound 580] | 2.56 |
| CCOC(=O)C(C#N)=C(NC(CC)C(=O)OC)c1cccnc1Cl (stereo not shown) [Compound 582] | 2.27 |
| CCOC(=O)C(C#N)=C(NC(C)CSCC)c1cccnc1Cl (stereo not shown) [Compound 586] | 3.06 |
| CCOC(=O)C(C#N)=C(NC(C)CSC)c1cccnc1Cl (stereo not shown) [Compound 593] | 2.71 |
| CCOC(=O)C(C#N)=C(NC(C)CSC)c1cccnc1C (stereo not shown) [Compound 648] | 2.44 |

Results, then the compound that gave them:

| Log P | SMILES |
| --- | --- |
| 2.38 | COC(=O)C(C#N)=C(NC(C)CSC)c1cccnc1Cl (stereo not shown) [Compound 575] |
| 2.72 | CCSCC(C)NC(=C(C#N)C(=O)OC)c1cccnc1Cl (stereo not shown) [Compound 577] |
| 3.14 | COC(=O)C(NC(=C(C#N)C(=O)OCC(F)(F)F)c1cccnc1Cl)C(C)C (stereo not shown) [Compound 581] |
| 2.98 | CSCC(C)NC(=C(C#N)C(=O)OCC(F)(F)F)c1cccnc1Cl (stereo not shown) [Compound 585] |
